Experimental findings from ChEMBL document CHEMBL1158942, “Novel meroterpenoids from Cystoseira mediterranea: use of the crown-gall bioassay as a primary screen for lipophilic antineoplastic agents” (1991) are described below.

The subject of the assay is Agrobacterium tumefaciens. As to the kind of experiment: Antitumor activity against Agrobacterium tumefaciens B6-induced crown gall tumor in potato tubers at 10000 uM after 15 to 20 days by crown gall tumor potato disk test. The assay is classed as functional.

Consider `Cc1cc(O)cc2c1OC(C)(CC1=C3C[C@@H](O)C(C)(C)OC1C(C)(C)CCCC3=O)CC2` (stereo partly drawn) [CYSTOSEIROL], for which the inhibition at 10000 µM amounted to 73%.

As to `COc1cc(C)c(O)c(C/C=C(\C)CC(=O)CCCC(=O)C=C(C)C)c1` [MEDITERRANENONE], the inhibition at 10000 µM is 76%. For the molecule `C/C(=C\Cc1cc(O)cc(C)c1O)CC(=O)C[C@@]1(C)CC2C(O)=CC(O)=C[C@]1(C)C2(C)C` [MEDITERRANEOL A], at 10000 µM the inhibition was 88%.
